Laboratory results from US20230416258A1, “BENZ[…], AND PREPARATION METHOD THEREFOR AND USE THEREOF” (CHINA PHARMACEUTICAL UNIVERSITY, priority 2020, published 2023).

Tested on: KM mice
Experiment: Test for drug-induced disappearance of righting reflex in mice
Type: in vivo
Conditions: single rapid bolus via tail vein
Text: In anesthetic drug experiments, latency generally refers to the time from the start of administration to the loss of consciousness of the subject. The shorter latency is preferred, indicating a rapid onset of action after administration. The duration of anesthesia generally refers to the duration of time from the loss of consciousness to the restoration of consciousness of the subject. The duration of the drug will vary from animal model to animal species. Too long anesthesia may produce adverse cardiovascular and respiratory responses, such as adverse neurological effects to the subject, including sleepiness and dizziness; meanwhile, too short duration of anesthesia may affect the anesthesia effect, causing problems such as increase of anesthesia dosage during the operation.
KM mice (female, 18-25 g) were randomly grouped and subjected to a single administration by rapid bolus via the tail vein. The latency and duration of disappearance of righting reflex in the mice were recorded.

| SMILES | Duration (30 mg/kg) [min] | Latency (30 mg/kg) [min] | Duration (60 mg/kg) [min] | Latency (60 mg/kg) [min] |
| --- | --- | --- | --- | --- |
| COC(=O)CC[C@@H]1N=C(c2ccccc2Cl)c2cc(Cl)ccc2-n2c(SCCN(C)C)nnc21 [Compound 133, methyl (S)-3-(8-chloro-6-(2-chlorophenyl)-1-(2-((dimethylamino)ethyl)thio)-4H-benzo[f][1,2,4]triazolo[4,3-a][1,4]diazepin-4-yl)propionate] | 2.24 | 0.26 |  |  |
| COC(=O)CC[C@@H]1N=C(c2ccccc2Cl)c2cc(Cl)ccc2-n2c(SCCCN(C)C)nnc21 [Compound 87, methyl (S)-3-(8-chloro-6-(2-chlorophenyl)-1-((3-(dimethylamino)propyl)thio)-4H-benzo[f][1,2,4]triazolo[4,3-a][1,4]diazepin-4-yl)propionate] |  |  | 21.17 | 0.73 |
| COC(=O)CC[C@@H]1N=C(c2ccc(F)cc2)c2ccccc2-n2c1n[nH]c2=S [Tautomer of compound 6, methyl (S)-3-(6-(4-fluorophenyl)-1-thio-2,4-dihydro-1H-benzo[f][1,2,4]triazolo[4,3-a][1,4]diazepin-4-yl)propionate] | 8.84 | 0.73 |  |  |
| C#CCSc1nnc2n1-c1ccc(Cl)cc1C(c1ccccc1Cl)=N[C@H]2CCC(=O)OC [Compound 78, methyl (S)-3-(8-chloro-6-(2-chlorophenyl)-1-(prop-2-yn-1-ylthio)-4H-benzo[f][1,2,4]triazolo[4,3-a][1,4]diazepin-4-yl)propionate] | 12.67 | 1.05 |  |  |
| CCN(CC)CCSc1nnc2n1-c1ccc(Br)cc1C(c1ccccc1Cl)=N[C@H]2CCC(=O)OC [Compound 85, methyl (S)-3-(8-bromo-6-(2-chlorophenyl)-1-((2-(diethylamino)ethyl)thio)-4H-benzo[f][1,2,4]triazolo[4,3-a][1,4]diazepin-4-yl)propionate] |  |  | 13.12 | 0.67 |
| CCOC(=O)CC[C@@H]1N=C(c2ccccc2Cl)c2cc(Cl)ccc2-n2c(SC)nnc21 [Compound 42, ethyl (S)-3-(8-chloro-6-(2-chlorophenyl)-1-(methylthio)-4H-benzo[f][1,2,4]triazolo[4,3-a][1,4]diazepin-4-yl)propionate] | 4.68 | 0.65 |  |  |
| COC(=O)CC[C@@H]1N=C(c2ccccc2F)c2cc(Cl)ccc2-n2c(SCN3CCN(c4ccccc4)CC3)nnc21 [Compound 72, methyl (S)-3-(8-chloro-6-(2-fluorophenyl)-1-(((4-phenylpiperazin-1-yl)methyl)thio)-4H-benzo[f][1,2,4]triazolo[4,3-a][1,4]diazepin-4-yl)propionate] | 13.12 | 0.42 | 10.67 | 1.52 |
| COC(=O)CC[C@@H]1N=C(c2ccccc2Cl)c2cc(Br)ccc2-n2c(SCC3CC3)nnc21 [Compound 76, methyl (S)-3-(8-bromo-6-(2-chlorophenyl)-1-((cyclopropylmethyl)thio)-4H-benzo[f][1,2,4]triazolo[4,3-a][1,4]diazepin-4-yl)propionate] | 5.65 | 0.76 |  |  |
| CCSc1nnc2n1-c1ccc([N+](=O)[O-])cc1C(c1ccccc1Cl)=N[C@H]2CCC(=O)OC [Compound 28, methyl (S)-3-(8-nitro-6-(2-chlorophenyl)-1-(ethylthio)-4H-benzo[f][1,2,4]triazolo[4,3-a][1,4]diazepin-4-yl)propionate] |  |  | 4.24 | 0.46 |
| COC(=O)CC[C@@H]1N=C(c2ccccc2Cl)c2cc(Cl)ccc2-n2c(S)nnc21 [Compound 2, methyl (S)-3-(8-chloro-6-(2-chlorophenyl)-1-mercapto-4H-benzo[f][1,2,4]triazolo[4,3-a][1,4]diazepin-4-yl)propionate] | 5.27 | 0.58 |  |  |
| COC(=O)CC[C@@H]1N=C(c2ccccc2F)c2cc(Br)ccc2-n2c(SCCN)nnc21 [Compound 21, methyl (S)-3-(8-bromo-6-(2-fluorophenyl)-1-((2-aminoethyl)thio)-4H-benzo[f][1,2,4]triazolo[4,3-a][1,4]diazepin-4-yl)propionate] | 2.83 | 0.35 | 6.4 | 0.2 |
| COC(=O)CC[C@@H]1N=C(c2ccccc2Cl)c2cc([N+](=O)[O-])ccc2-n2c(SC3CCN(C)CC3)nnc21 [Compound 95, methyl (S)-3-(8-nitro-6-(2-chlorophenyl)-1-((1-methylpiperidin-4-yl)thio)-4H-benzo[f][1,2,4]triazolo[4,3-a][1,4]diazepin-4-yl)propionate] | 12.41 | 0.82 |  |  |
| COC(=O)CC[C@@H]1N=C(c2ccccc2F)c2cc(Br)ccc2-n2c(SCCO)nnc21 [Compound 18, methyl (S)-3-(8-bromo-6-(2-fluorophenyl)-1-((2-hydroxyethyl)thio)-4H-benzo[f][1,2,4]triazolo[4,3-a][1,4]diazepin-4-yl)propionate] | 4.74 | 0.31 | 9.16 | 0.33 |
| CCN(CC)CCSc1nnc2n1-c1ccc(Cl)cc1C(c1ccccc1Cl)=N[C@H]2CCC(=O)OC [Compound 84, methyl (S)-3-(8-chloro-6-(2-chlorophenyl)-1-((2-(diethylamino)ethyl)thio)-4H-benzo[f][1,2,4]triazolo[4,3-a][1,4]diazepin-4-yl)propionate] | 21.9 | 0.31 |  |  |
| COC(=O)CC[C@@H]1N=C(c2ccccn2)c2cc(Br)ccc2-n2c(SCCCN(C)C)nnc21 [Compound 118, methyl (S)-3-(8-bromo-6-(pyridin-2-yl)-1-(3-((dimethylamino)propyl)thio)-4H-benzo[f][1,2,4]triazolo[4,3-a][1,4]diazepin-4-yl)propionate] | 15.44 | 0.32 |  |  |
| COC(=O)CC[C@@H]1N=C(c2ccccc2)c2cc(Cl)ccc2-n2c(SCCCN(C)C)nnc21 [Compound 108, methyl (S)-3-(8-chloro-1-((3-(dimethylamino)propyl)thio)-6-phenyl-4H-benzo[f][1,2,4]triazolo[4,3-a][1,4]diazepin-4-yl)propionate] |  |  | 11.73 | 0.59 |
| COC(=O)CC[C@@H]1N=C(c2ccccc2F)c2cc([N+](=O)[O-])ccc2-n2c(SCN3CCOCC3)nnc21 [Compound 71, methyl (S)-3-(8-nitro-6-(2-fluorophenyl)-1-((morpholinomethyl)thio)-4H-benzo[f][1,2,4]triazolo[4,3-a][1,4]diazepin-4-yl)propionate] |  |  | 12.10 | 0.56 |
| COC(=O)CC[C@@H]1N=C(c2ccccc2Cl)c2cc([N+](=O)[O-])ccc2-n2c(SCCN3CCN(C)CC3)nnc21 [Compound 92, methyl (S)-3-(8-nitro-6-(2-chlorophenyl)-1-((2-(4-methylpiperazin-1-yl)ethyl)thio)-4H-benzo[f][1,2,4]triazolo[4,3-a][1,4]diazepin-4-yl)propionate] |  |  | 10.12 | 2.00 |
| COC(=O)CC[C@@H]1N=C(c2ccc(F)cc2)c2ccccc2-n2c(S)nnc21 [Compound 6, methyl (S)-3-(6-(4-fluorophenyl)-1-mercapto-4H-benzo[f][1,2,4]triazolo[4,3-a][1,4]diazepin-4-yl)propionate] | 9.93 | 0.59 |  |  |
